We go through 7 compounds from patent US20140377289A1, “Metallodrugs Having Improved Pharmacological Properties, and Methods of Manufacture and Use Thereof” (MetalloPharm, LLC, priority 2011, published 2014).

In general, Kd refers to the equilibrium constant for the complex coming apart. Read a low Kd as higher affinity. Broadly, the Ki is a measure of affinity in units of concentration, obtained from inhibition or displacement. For orientation: IC50 means the concentration at which inhibition is half-maximal.

Series [1] concerns stem loop IIb HCV IRES RNA. The class given is biochemical, hepatitis C virus (HCV). The conditions noted are these: cleavage of stem-loop IIb; 100 nM catalyst, 1 mM ascorbate, 1 mM H2O2. On the procedure:
(§1) HCV IRES RNA cleavage was monitored in vitro by fluorescence using 5′ fluorescein end-labeled RNA with excitation and emission wavelengths of 485 nm and 518 nm, respectively. Reactions were carried out in reaction volumes of 100 μl in the presence of 1 mM ascorbate and 1 mM H2O2 in 20 mM HEPES buffer (pH=7.4), 100 mM NaCl with 100 nM of the catalyst and analyzed according to the change in fluorescence observed as the reaction occurred. Both a time-dependence and a concentration-dependence of RNA substrate were observed. The initial velocities were fit to a line using Origin 7.0 software and kobs obtained. These values were then used to obtain the Michaelis-Menten parameters.
The reactivity of select catalytic metallodrugs was investigated by Michaelis-Menten profiles. Reaction chemistry was followed by monitoring the fluorescence change of 5′-fluorescein-labeled RNA as a function of time. Initial velocities were measured as a function of substrate (RNA) concentration to generate a standard Michaelis-Menten plot (FIG. 2).

Series [2] deals with stem loop IV HCV IRES RNA. It is filed as biochemical, hepatitis C virus (HCV). To be noted: cleavage of stem loop IV; 100 nM catalyst, 1 mM ascorbate, 1 mM H2O2. Here is the method:
as §1

For series [3], the system named is stem loop IV HCV IRES RNA. It is filed as binding, hepatitis C virus (HCV). On the procedure: (§2) RNA was purchased from Dharmacon, part of Thermo Fisher Scientific (Lafayette, Colo.). Peptides were purchased from Genemed Synthesis Inc (South San Francisco, Calif.) with C-terminal amidation. The stem-loop (SL) structure (from Lytle et al., RNA 13: 539-48, 2002) is depicted in FIG. 6. The sequence for the IRES SL IIb RNA used was 5′-Fluorescein-[…]-3′, and for the IRES SL IV RNA was 5′-Fluorescein-[…]-3′. All RNA was annealed by heating to 95° C. and then cooled slowly to room temperature before use.
(§3) RNA binding experiments were performed in the presence of 84 nM GGHYrFK-amide in 20 mM HEPES (pH 7.4), 100 mM NaCl. For GGHYrFK-amide, serial additions of unlabeled IRES RNA were added and tyrosine emission was monitored (λex=280 nm, λem=313 nm). Binding data for GGHYr[…]-amide and GGHYr[…]-amide were obtained by adding serial additions of peptide to 5′-fluorescein labeled IRES SLIIb and monitoring at 518 nm (Ex=485 nm). Data was then fit to a one-site binding model.

The subject of series [4] is stem-loop IIb of HCV IRES RNA. The class given is binding, hepatitis C virus (HCV). To be noted: stem-loop IIb. On the procedure:
as §2, §3

The target of series [5] is T1, full length sACE-1 (Homo sapiens, UniProt P12821).
T1 construct: sACE-1: Leu30-Leu1261, with C-terminal His tag; His tag (C); purchased R&D Systems; host or cells: NS0-derived murine myeloma cell line
T1 sequence (P12821 30-1261): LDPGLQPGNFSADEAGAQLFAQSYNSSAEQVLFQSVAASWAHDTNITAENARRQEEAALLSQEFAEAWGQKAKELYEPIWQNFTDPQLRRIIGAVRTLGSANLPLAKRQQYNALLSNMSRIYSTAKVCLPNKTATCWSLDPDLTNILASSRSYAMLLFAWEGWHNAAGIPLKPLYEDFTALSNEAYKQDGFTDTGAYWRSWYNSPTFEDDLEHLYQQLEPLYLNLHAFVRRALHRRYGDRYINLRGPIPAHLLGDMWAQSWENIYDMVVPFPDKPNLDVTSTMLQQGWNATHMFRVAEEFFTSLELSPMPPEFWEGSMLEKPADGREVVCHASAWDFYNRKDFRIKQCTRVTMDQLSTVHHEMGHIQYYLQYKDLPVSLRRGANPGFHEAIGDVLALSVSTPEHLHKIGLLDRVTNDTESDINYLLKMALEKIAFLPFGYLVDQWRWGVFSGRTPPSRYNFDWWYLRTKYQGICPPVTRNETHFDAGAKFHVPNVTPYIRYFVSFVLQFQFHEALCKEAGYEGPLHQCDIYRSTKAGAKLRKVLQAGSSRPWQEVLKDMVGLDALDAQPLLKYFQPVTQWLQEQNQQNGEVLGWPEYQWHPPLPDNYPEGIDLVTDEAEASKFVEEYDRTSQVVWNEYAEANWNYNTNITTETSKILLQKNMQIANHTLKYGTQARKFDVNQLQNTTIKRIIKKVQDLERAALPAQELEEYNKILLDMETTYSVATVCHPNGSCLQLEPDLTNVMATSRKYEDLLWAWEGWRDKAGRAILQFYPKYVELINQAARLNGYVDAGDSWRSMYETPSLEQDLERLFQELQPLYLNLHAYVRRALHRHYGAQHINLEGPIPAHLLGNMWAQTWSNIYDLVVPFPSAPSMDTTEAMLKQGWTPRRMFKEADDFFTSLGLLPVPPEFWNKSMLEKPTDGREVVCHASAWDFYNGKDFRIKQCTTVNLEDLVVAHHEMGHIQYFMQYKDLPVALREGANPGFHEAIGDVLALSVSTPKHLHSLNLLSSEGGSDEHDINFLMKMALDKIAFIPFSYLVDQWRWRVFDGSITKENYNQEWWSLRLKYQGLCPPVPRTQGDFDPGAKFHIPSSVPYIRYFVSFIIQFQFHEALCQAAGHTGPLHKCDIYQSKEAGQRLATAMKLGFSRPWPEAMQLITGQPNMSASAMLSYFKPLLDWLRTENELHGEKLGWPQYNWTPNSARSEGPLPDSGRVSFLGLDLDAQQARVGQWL
Put plainly: Cleavage of full length sACE-1 monitored by SDS-PAGE. It is filed as biochemical. The conditions noted are these: Ascorbate, pH 7.4, 37° C.

Series [6] deals with pUC19 plasmid DNA. Put plainly: DNA nicking and linearization nuclease assay. The class given is biochemical. The conditions noted are these: 10 μM base pairs pUC19; ascorbate/peroxide; — = Below detection limit.
For series [7], the target named is T2, Recombinant human somatic ACE (sACE-1) (Homo sapiens, UniProt P12821).
T2 construct: sACE-1: Leu30-Leu1261, with C-terminal His tag; His tag (C); purchased R&D Systems; host or cells: NS0-derived murine myeloma cell line
T2 sequence (P12821 30-1261): as above
Description: Time-dependent inactivation of sACE-1. The class given is biochemical. To be noted: pH 7.4, 37° C. Here is the method: Time-Dependent Inactivation of sACE-1. sACE-1 and each M-chelate-lisinopril complex (prepared in the absence of Zn^2+) were preincubated for 20 min at 37° C. in a buffer containing 50 mM HEPES, 300 mM NaCl, 10 μM ZnCl2, 0.05% Brij35, pH 7.4, and after 20 min, coreactants ascorbate and/or H2O2 (or no coreactants) were added to initiate each reaction. Reaction concentrations were 1 nM sACE-1, a concentration of M-chelate-lisinopril that gave approximately 80% activity (calculated by use of equation (1), where A=80%; concentrations listed in the table in paragraph [00132]), and 1 mM ascorbate and/or H2O2 (or no coreactants). Each time-dependent ACE-inactivation reaction proceeded at 37° C. for a period of 2 h, and at each specific intervening time point, a 68.6 μL, aliquot of the reaction mixture containing sACE-1 was mixed with 1.4 μL of 0.5 mM fluorogenic substrate in a fluorescence cuvette. Substrate cleavage by sACE-1 was immediately monitored by real-time fluorimetry at 37° C., with excitation at 320 nm and emission at 405 nm. Initial rates were determined for each time point for the time-dependent inactivation of sACE-1, and these initial rates were expressed as a percentage (% maximal activity) of the average of several initial rates for uninhibited substrate cleavage by sACE-1, determined in the absence of both M-chelate-lisinopril complexes and coreactants. Plots of % maximal activity vs. time were fit to a first-order exponential decay model, and initial rates of inactivation of sACE-1 by M-chelate-lisinopril complexes were determined. Second-order rate constants for inactivation of sACE-1 were obtained using equation (2), where k2 is the second-order rate constant (M^−1 min^−1), R is the initial rate of enzyme inactivation (M/min) after subtraction of the corresponding background rate in the absence of M-chelate-lisinopril complex, but with the same coreactants, [I] is the concentration of M-chelate-lisinopril complex used (M), and [E] is the concentration of sACE-1 used (1×10^−9 M). Control experiments with M-chelate complexes lacking attached lisinopril were performed in the same manner and conditions used for the respective M-chelate-lisinopril complexes.

In series [8] the target is HCV protease (Hepatitis C virus genotype 1a, UniProt P27958). The conditions noted are these: cited from earlier work.
Chain of HCV protease (P27958 1027-1208, other chains not shown): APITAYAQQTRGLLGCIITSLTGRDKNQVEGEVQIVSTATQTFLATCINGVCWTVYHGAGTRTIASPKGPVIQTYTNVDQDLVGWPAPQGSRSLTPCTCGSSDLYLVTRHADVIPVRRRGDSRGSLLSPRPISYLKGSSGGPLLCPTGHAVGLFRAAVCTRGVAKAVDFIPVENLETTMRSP
Series [9] has as its target T2, Recombinant human somatic ACE (sACE-1). Put plainly: Determination of IC50 values, sACE-1 fluorogenic substrate cleavage. It is filed as biochemical.

Where two headings read alike, the source gives them in different places. Where a SMILES comes first, the peptide text is derived from it. Where no end group is shown, it is not given here. [ ]: non-standard residue; d: D form. The star is where a group is joined. X1 = COCCOCCOCCOCCOCCOCCOCCOCCOCCOCCOCCOCCOCCOCCOCCOCCOCCOCCOCCOCCOCCOCCOCCOCCNC(=O)CCN1C(=O)CC(*)C1=O

In the case of Cu-GGHKYKETDLLILFKDDYFAKKNEERK-amide, the values for the Vmax in series [1] and in series [2] were 13.96 RFU/min and 2.0 RFU/min, respectively. Further, the KA in series [3] is 143000 M⁻¹; in [4], 556000 M⁻¹. The values for the Kd in [3] and in series [4] were 7 µM and 1.8 µM, respectively.
With “Cu-GGHYRFK-amide (GGHYRFK-NH2; also: Cu complex)”, the Vmax in [1] stood at 3.96 RFU/min; in series [2], 0.95 RFU/min. Moreover, the KA in [3] and in [4] was 145000 M⁻¹ in each case. In addition, the dissociation constant Kd in series [3] and in series [4] was 6.9 µM each time.
On to `O=C([O-])CN(CCN(CC(=O)[O-])CC(=O)[O-])CC(=O)[O-].[Fe+3]` [Fe-EDTA], for which the “Second order rate constant for cleavage of full length sACE-1 (in brackets), M-chelate without lisinopril” value in series [5] was “{<100,000} M^−1min^−1”. In series [6], the “klin for DNA linearization, without attached Rev (M-chelate)” value is 0.0005 ± 0.0001 min⁻¹ and the “knick for DNA nicking, without attached Rev (M-chelate)” value was determined as 0.044 ± 0.009 min⁻¹. Also, the “Second order rate constant for inactivation of sACE-1, M-chelate without lisinopril” value in [7] (Ascorbate) is on record as 10,000 ± 50,000 M^−1min^−1.
`COCCOCCOCCOCCOCCOCCOCCOCCOCCOCCOCCOCCOCCOCCOCCOCCOCCOCCOCCOCCOCCOCCOCCOCCOCCOCCOCCOCCOCCOCCOCCOCCOCCOCCOCCOCCOCCOCCOCCOCCOCCOCCOCCOCCOCCOCCOCCOCCNC(=O)CCN1C(=O)CC(SC[C@H](NC(=O)CNC(=O)CNC(=O)[C@H](CCCCN)NC(=O)[C@H](Cc2ccccc2)NC(=O)[C@@H](CCCNC(=N)N)NC(=O)[C@H](Cc2ccc(O)cc2)NC(=O)CNC(=O)[C@H](Cc2c[nH]cn2)NC(=O)CNC(=O)CN)C(N)=O)C1=O` (stereo partly shown) [Cu-GGHGYrFKGGC-PEG48] came in with a CC50 of more than 50 µM.
Turning to `COCCOCCOCCOCCOCCOCCOCCOCCOCCOCCOCCOCCOCCOCCOCCOCCOCCOCCOCCOCCOCCOCCOCCOCCNC(=O)CCN1C(=O)CC(SC[C@H](NC(=O)CNC(=O)CNC(=O)[C@H](CCCCN)NC(=O)[C@H](Cc2ccccc2)NC(=O)[C@@H](CCCNC(=N)N)NC(=O)[C@H](Cc2ccc(O)cc2)NC(=O)CNC(=O)[C@H](Cc2c[nH]cn2)NC(=O)CNC(=O)CN)C(N)=O)C1=O` (stereo partly shown) [Cu-GGHGYrFKGGC-PEG24] (H-GGHGY[dR]FKGGC(X1)-NH2), the CC50 is more than 50 µM.
Regarding DDIVPC [Asp-Asp-Ile-Val-Pro-Cys], the Ki in series [8] was 79 µM.
Consider `NCC(=O)NCC(=O)N[C@@H](Cc1c[nH]cn1)C(=O)O` [Cu-GGH] (H-Gly-Gly-His-OH), for which the IC50 in series [9] turned out to be 17 µM. For the same compound, the “klin for DNA linearization, without attached Rev (M-chelate)” value in series [6] turned out to be 0.0012 ± 0.0002 min⁻¹. In [6], the “knick for DNA nicking, without attached Rev (M-chelate)” value is 0.06 ± 0.01 min⁻¹. For the same compound, the kinact/KI in series [7] (pH 7.4, read-out: Second order rate constant for inactivation of sACE-1, M-chelate without lisinopril, Ascorbate + H2O2) was 167 M⁻¹ s⁻¹; in series [7] (pH 7.4, read-out: Second order rate constant for inactivation of sACE-1, M-chelate without lisinopril, Ascorbate), less than 16.7 M⁻¹ s⁻¹; in series [7] (pH 7.4, read-out: Second order rate constant for inactivation of sACE-1, M-chelate without lisinopril, H2O2), less than 33.3 M⁻¹ s⁻¹.
